In ChEMBL document CHEMBL1158711, “Bisindigotin, a TCDD antagonist from the Chinese medicinal herb Isatis indigotica” (J Nat Prod, 2005):
pIC50: −log10 of the molar value.

Assay: Inhibition of TCDD-induced EROD activity in human HepG2 cells after 24 hrs
Type: cell-based

SMILES | pIC50
CC(=O)N1/C(=C2\N=c3ccccc3=C2c2c(C3=Nc4ccccc4C3=O)[nH]c3ccccc23)C(=O)c2ccccc21 | 5.52
O=c1cc(-c2ccccc2)oc2c1ccc1ccccc12 [ALPHA-NAPHTHOFLAVONE] | 6.49
O=C1C(c2[nH]c3ccccc3c2C2=c3ccccc3=N/C2=C2\Nc3ccccc3C2=O)=Nc2ccccc21 [BISINDIGOTIN] | 6.10
